Where two headings read alike, the source gives them in different places. Starred links: 1 amine or outer side, 2 acyl side, 3 side chain; linkers in the order of their positions; H or OH if unused. Positions of bridges follow the written chain, without caps; N, C: chain ends. Non-standard residues stand in square brackets, D forms with d. Residues, ends and D or L forms follow the SMILES beside them. ξ: configuration not given here. Biphenyl(4,4'-CH2)2 = c1cc(-c2ccc(C[*:2])cc2)ccc1C[*:1]; ξαMeNle(6-ylidene) = CC(CCCC=[*:3])(N[*:1])C(=O)[*:2]; X1 = CC(CCCCCCC=[*:3])(N[*:1])C(=O)[*:2]

Assay [1] concerns RPMI-8266-LR5, lymphoblast (myeloma), selected for resistance to Melphalan. The class given is cell-based. Here is the method: RPMI-8266-LR5, lymphoblast (myeloma), selected for resistance to Melphalan (Bellamy W T et al., Cancer Res. 1991 Feb. 1; 51(3):995-1002).
All cell lines were cultured in incubator at 37° C. in RPMI-1640 (Sigma R8758) medium with 10% of fetal bovine serum inactivated (FBS) and 2 mM glutamine (Sigma G7513). During the amplification step cells were centrifuged and transferred into the culturing medium. Cells were counted in a Neubauer chamber after labelling with Tripan-Blue.
Cells were seeded at a density of 10000 cells/well in 100 μl of medium in 96 well plates. After 24 h, the compounds to be tested were added to calculate the dose/response curve at the starting concentration of 100 μM with serial dilutions (1:1). Controls are the untreated cells. Each experiment was performed in triplicate.
(§1) Cells were incubated with the peptidomimetic compound (S09) at the indicated concentrations during 24-72 h in incubator under CO2 atmosphere at 37° C. Then, cell viability was measured by means of MTT (3-(4,5-dimethylthiazol-2-yl)-2,5-diphenyltetrazolium bromide) assay. Stock solution of MTT (475989 Calbiochem) was 5 mg/ml in PBS. 1×.10 μl/well of MTT solution were added and the plate was incubated for 3-4 hr. The medium was discarded and 100 μl of extracting buffer (PBS 1×, 15% SDS, 50% […] N,N-Dimethylformamide, pH 4.7) were added to each well. Plates were incubated for 16 h at room temperature under orbital shaking. Absorbance at 570 nm was finally measured. As negative control (experiment noise) 3 wells were treated with 20 μl/well of a solution of SDS 10% in H2O.
Data analysis was performed calculating the percentage of cell viability normalized vs. the values of negative control, which was considered equal to 100%. The dose/response curve was fitted through the sigmoidal equation dose-response (variable slope) and the IC50 values were calculated as follow:
Y=Bottom+(Top−Bottom)/(1+10^{[(LogIC50−X)*HillSlope]},
All cell lines were cultured in incubator at 37° C. in RPMI-1640 (Sigma R8758) medium with 10% of fetal bovine serum inactivated (FBS) and 2 mM glutamine (Sigma G7513).
Cells were seeded at a density of 10,000 cells/well in 100 μl of medium in 96 well plates. After 24 h, the compounds to be tested were added to calculate the dose/response curve at the starting concentration of 40 μM with serial dilutions (1:1). Controls are the untreated cells. Each experiment was performed in triplicate.
as §1, with “compounds” for “compound (S09)”

The test system of assay [2] is RAMOS, B lymphocyte (Burkitt's Lymphoma). In words: MTT viability assay, RAMOS. Format: cell-based. Here is the method:
RAMOS, B lymphocyte (Burkitt's Lymphoma), ATCC: CRL-1596 […] During the amplification step and the assays adherent cells were rinsed with DPBS (Dulbecco's Phosphate Buffered Saline, Sigma D1283) three times and afterward treated for 5 minutes with trypsin ([…]) (Gibco-BRL, 15400054) in solution of DPBS at 37° C., and, once detached, transferred in the culturing medium. No-adherent cells were centrifuged and transferred in the culturing medium. Cells were counted in a Neubauer chamber after labelling with Tripan-Blue. […] Cells were seeded at a density of 10000 cells/well in 100 μl of medium in 96 well plates. […] Controls are the untreated cells. Each experiment was performed in triplicate. Cells were incubated with the compounds at the indicated concentrations during 24-72 h in incubator under CO2 atmosphere at 37° C. […] Stock solution of MTT (475989 Calbiochem) was 5 mg/ml in PBS. 1×.10 μl/well of MTT solution were added and the plate was incubated for 3-4 hr. […] Plates were incubated for 16 h at room temperature under orbital shaking. Absorbance at 570 nm was finally measured. […] The dose/response curve was fitted through the sigmoidal equation dose-response (variable slope) and the IC50 values were calculated as follow: Y=Bottom+(Top−Bottom)/(1+10^{[(LogIC50−X)*HillSlope]},
Background: Tetrazolium assays rely on reduction of a dye to a coloured formazan, in cell work by metabolically active cells.

Where [3] appears, read: RPMI-LR5, 24 hr, Table 13, read-out: IC50 after 24 hr values.
[4] abbreviates: RPMI-LR5, 72 hr, Table 14, read-out: IC50 after 72 hr values.

One may read the IC50 as the point on the concentration scale where inhibition reaches its midpoint. As to `CC[C@H](C)[C@H](NC(=O)[C@H](Cc1ccc(O)cc1)NC(=O)[C@H](C)NC(=O)[C@@H]1CSCc2ccc(cc2)-c2ccc(cc2)CSC[C@H](NC(=O)[C@H](CCCCN)NC(=O)[C@@H]2CCCN2C(=O)[C@H](C)N)C(=O)N[C@@H](C(C)C)C(=O)N[C@@H]([C@@H](C)CC)C(=O)N[C@@H](CC(C)C)C(=O)N[C@@H](CCCCN)C(=O)N[C@@H](CCCCN)C(=O)N[C@@H](C)C(=O)N1)C(=O)N[C@@H](CC(C)C)C(=O)N[C@@H](CO)C(=O)O` [IDP-P1708161] (H-APKCVILKKACAYILS-OH; linker 4-11 via Biphenyl(4,4'-CH2)2; N-terminus and C-terminus assumed), the IC50 in assay [1] (setting [3]) and in assay [1] (setting [4]) was 35 µM throughout.

As to `CC[C@H](C)[C@H](NC(=O)[C@H](Cc1ccc(O)cc1)NC(=O)[C@H](C)NC(=O)C1(C)CCCC=CCCCCCCC(C)(NC(=O)[C@H](CCCCN)NC(=O)[C@@H]2CCCN2C(=O)[C@H](C)N)C(=O)N[C@@H](C(C)C)C(=O)N[C@@H]([C@@H](C)CC)C(=O)N[C@@H](CC(C)C)C(=O)N[C@@H](CCCCN)C(=O)N[C@@H](CCCCN)C(=O)N[C@@H](C)C(=O)N1)C(=O)N[C@@H](CC(C)C)C(=O)N[C@@H](CO)C(=O)O` (some centres unmarked) [S09, APKXVILKKAXAYILS—OH] (H-APK[X1]VILKKA[ξαMeNle(6-ylidene)]AYILS-OH; staple 4-11; N-terminus assumed), the IC50 in assay [2] (Ramos, MTT, incubation 24-72 h, Table 3, read-out: IC50 values) is approximately 28 µM; in assay [2] (Ramos, same protocol as Example 2, Table 6, read-out: Compound (IC50)), approximately 28 µM; in assay [1] (RPMI-LR5 (resistant to Melphalan), MTT, 24-72 h, Table 7, read-out: IC50 values in μM for S09), 11.4 µM.

For the molecule `CC[C@H](C)[C@H](NC(=O)[C@H](Cc1ccc(O)cc1)NC(=O)[C@H](C)NC(=O)C1(C)CCCC=CCCCCCCC(C)(NC(=O)[C@H](CCCCN)NC(=O)[C@@H]2CCCN2C(=O)[C@H](C)N)C(=O)N[C@@H](C(C)C)C(=O)N[C@@H]([C@@H](C)CC)C(=O)N[C@@H](Cc2ccccc2)C(=O)N[C@@H](CCCCN)C(=O)N[C@@H](CCCCN)C(=O)N[C@@H](C)C(=O)N1)C(=O)N[C@@H](CC(C)C)C(=O)N[C@@H](CO)C(=O)O` (some centres unmarked) [S14, APKXVIFKKAXAYILS—OH] (H-APK[X1]VIFKKA[ξαMeNle(6-ylidene)]AYILS-OH; staple 4-11; N-terminus assumed), the IC50 is 55 µM in assay [2], 10 µM in assay [1] (setting [3]) and 10 µM in assay [1] (setting [4]).

The values above are taken from US20200261534A1, “NEW TREATMENTS OF MULTIPLE MYELOMA” (priority 2017, published 2020).
